Measurements as given in US7024311B1, “COMPUTER-AIDED METHOD FOR THE PROVISION, IDENTIFICATION AND DESCRIPTION OF MOLECULES CAPABLE OF EXHIBITING A DESIRED BEHAVIOR, MORE PARTICULARLY IN THE PHARMACEUTICAL SECTOR, AND MOLECULES OBTAINED BY SAID METHOD” (Synt:EM S.A., priority 1997, dated 2006).
“And” between values parts separate entries of the source, which are not always exact repeats. Equal entries are not always repeated. Marks after values point to notes of the source that are not given here.

Tests used:
[1] = test system: CBA mouse recipients of C57B1/6 donor hearts; experiment: heart-allograft survival in mice (abdominal heterotopic heart transplantation); type: in vivo; details: for MSTSD / mean graft survival time: CBA recipients of C57B1/6 donor hearts, peptide intraperitoneal daily from day of transplantation until day nine
Experimental: Abdominal heterotopic heart transplantation was carried out as described previously in J. Thorac. Cardiovasc. Surg., vol. 7, page 225 (1969).
CBA mouse recipients of C57B1/6 donor hearts were treated daily with different doses of peptide following organ transplantation. Peptides were dissolved in DMSO and diluted in PBS (final DMSO concentration 10%) before intraperitoneal administration. Animals were treated from the day of transplantation until day nine. Graft survival was monitored daily by direct palpation, and rejection was defined as termination of palpable cardiac contractility. The statistical significance of prolongation of heart allograft survival was calculated using the Mann-Whitney test.

[2] = test system: CBA mouse recipients of C57B1/6 donor hearts; details: cited from earlier work

Substance	MSTSD ([1]; dose not printed in table)	also measured
ENLRIALR [shortened peptide derived from 2702.75-84]	8.5 0.7 (12)	–
NLRIALRYYW [peptide derived from peptide 2702.75-84]	–	mean graft survival time ([1]; dose not printed in table): 11.6 days
REDLRTLLRY	7.7 1.2 (11)	–
RENLRIALRY [peptide derived from HLA-B2702, amino acids 75 to 84, reference compound]	11.4 2.6 (1)* and 11.4 4.1 (1)	allograft survival, reference peptide ([1]; 80 mg/kg/day): prolonged allograft survival; effect at lower doses, reference peptide ([1]; doses lower than 80 mg/kg/day): no effect was observed; long-term graft survival ([1]; reference peptide administration): no long-term graft survival was induced; heart-allograft survival ([2]; 80 mg/kg/day for 10 days following transplantation of B6 donor hearts into CBA recipients, n=8, p<0.01 vs untreated): 11.4 days; heart-allograft survival in mice ([2]; Transplantation, vol. 59, page 455 (1995)): prolongs heart-allograft survival in mice; effect on graft survival at lower doses ([2]; doses lower than 80 mg/kg/day): No effect on graft survival was observed
RESLRLLRGY	7.5 0.7 (10)	–
RMNLQTLRGY	7.5 0.7 (15)	–
RVDKRTLLGY	7.8 1.0 (8)	–
RVDLRTLLRY	7.0 0.5 (7)	–
RVNLRIALRY [peptide derived from peptide 2702.75-84]	11.5 0.5 (3)	mean graft survival time ([1]; dose not given): 13.1 days
RVNLRTALRY	–	mean graft survival time ([1]; dose not printed in table): 8.5 days
RVNLRTLRRY	8.0 0.5 (14)	–
RVSLRNLLGY	8.0 0.5 (9)	–
YRLAIRLNER	12.1 2.8 (2)	MSTSD ([1]; dose not printed in table, listed as yrlairlner): 13.2 2.7 (2)
YRLAIRLNVR	–	mean graft survival time ([1]; dose not printed in table): 12.5 days; mean graft survival time ([1]; dose not printed in table, listed as yrlairlnvr): 12.2 days
renlpialry	9.5 2.4 (13)	–
